US9708370B2, “Azapeptides as CD36 binding compounds” (VALORISATION-RECHERCHE, LIMITED PARTNERSHIP, priority 2007, dated 2017)
Like-named read-outs stand apart in the source and are kept apart here. Starred links: 1 amine or outer side, 2 acyl side, 3 side chain; linkers in the order of their positions; H or OH if unused. Non-standard residues stand in square brackets, D forms with d. Residues, ends and D or L forms follow the SMILES beside them. azaTyr = O=C(N(Cc1ccc(O)cc1)N[*:1])[*:2]; X3 = O=C(N(Cc1cccc2ccccc12)N[*:1])[*:2]; azaPhe = O=C(N(Cc1ccccc1)N[*:1])[*:2]; azaLeu = CC(C)CN(N[*:1])C(=O)[*:2]; azaGly = NNC(=O)O

Tests used:
CD36 = CD36 (Rattus norvegicus (Rat), UniProt Q07969); assay: CD36 receptor covalent photolabelling binding assay, competition with [125I]Tyr-Bpa-Ala-hexarelin on rat cardiac membranes; conditions: for binding activity/affinity at CD36 in words: compared with parent peptide GHRP-6 or hexarelin
Description: The hearts from Sprague Dawley rats (300 g-325 g) from Charles River, used as a source of cardiac membranes, were prepared as follows: the heart was washed with ice-cold saline, and fatty and connective tissue was removed. The tissue was cut into small pieces with scissors and placed in a Sorvall centrifuge tube containing 5 ml/g of fresh tissue of Buffer A (10 mM NaHCO3, 5 mM NaN3, 10 μM Pefabloc, 0.1 μM Aprotinin, 1 μM Pepstatin A, 1 μM Leupeptin, pH 7.0). The suspension was homogenized with a Polytron at low speed, 3×15 sec. The homogenate was centrifuged at 8 700×g for 20 min and the supernatant was put on ice. The pellet was resuspended and homogenized with a Glass-teflon Potter by 5 strokes. The homogenate was centrifuged at 8 700×g for 10 min and this supernatant was combined with the first supernatant. The supernatant fluid was centrifuged at 35 000×g for 20 min, yielding a second pellet fraction that was suspended thoroughly in a glass homogenizer with a Teflon pestle in 20 ml/g of fresh tissue of Buffer B (20 mM Tris-maleate, 0.6M KCl, pH 6.8). The resulting suspension was centrifuged again at 35 000×g for 60 min. The third pellet fraction was resuspended thoroughly in a glass homogenizer with a Teflon pestle in 20 ml/g of fresh tissue of Buffer C (10 mM Tris/HCl buffer pH 7.4) followed with another centrifugation at 35 000×g for 60 min. The harvested precipitate was then suspended in a small volume (1-2 ml/g of fresh tissue) of 50 mM Tris/HCl buffer pH 7.4) containing 2 mM EGTA. The resulting membrane preparation was frozen at −80° C. Protein concentration was determined with bicinchoninic acid (BCA) method, using BSA as standard.
The iodination procedure was performed in the darkness. […] The reaction was started by adding 5 ul (3 nmol) of H2O2. The incubation was carried out at 22° C. for 5 min. The addition of H2O2 was repeated twice with 5 min incubation each time. The reaction was stopped with the addition of 1.4 ml of 0.1% TFA. The iodinated peptide was purified on a reverse-phase Vydac C18 column with a 60 min linear gradient (1 ml/min) from 20% to 50% acetonitrile (90%) in 0.1% TFA (10%).
Nonspecific binding was defined as binding not displaced by 50 μM corresponding peptide. All peptide containing solutions were diluted in Buffer B. Buffer A and B were degassed under vacuum, and used in capped tubes in order to minimize lipid peroxydation. Before the incubation period, all tubes were put under a low flow of nitrogen. All material was kept on ice and the binding assay was performed in darkness. After an incubation period of 60 min at 22° C. […] After centrifugation at 12 000×g for 15 minutes, the pellets were resuspended in 150 μl of sample buffer (62 mM Tris-HCl, pH 6.8, 2% SDS, 10% glycerol, 15% 2-mercapto-ethanol, and 0.05% bromophenol blue), and boiled for 5 min prior to being subjected to electrophoresis. Proteins (200 μg/100 μl) were separated on 7.5% SDS-PAGE (45 V overnight). The gels resulting from SDS/PAGE were fixed, colored in Coomassie Brilliant Blue R-250, dried, exposed to a storage phosphor intensifying screen (Amersham Biosciences), and analysed by using a Typhoon PhosphorImager (Amersham Biosciences) and ImageQuant 5.0 software to establish competition curves. Protein bands were quantified by densitometry. The covalent binding signal of 87 kDa was analyzed by densitometry using Typhoon Phospholmager™ (Typhoon, Amersham Biosciences) and ImageQuant 5.0® software to set competition curves.
Specific binding activities were defined as the ratio of the density of the protein band to that of a non-specific band. Results are expressed as the percentage of the density of the […] to that of the total binding band.

human GHS-R1a = human GHS-R1a (Homo sapiens (Human), UniProt Q92847); assay: GHS-R1a binding assay, competition with 125I-ghrelin on membranes of LLC-PK1 cells expressing human GHS-R1a; conditions: for IC50: Table 5, read-out: IC50 Binding GHS-R1a
Description: Rat ghrelin was radio iodinated with Na^125I using the lodo-Beads iodination reagent (Pierce #28665). Briefly, an lodo-bead was incubated with 2 mCi of Na^125I (Amersham) in 100 μL of 50 mM sodium phosphate buffer, pH 7.0 for 5 min at 22° C. The reaction was started by adding 20 nmol of the peptide (1 mM in 0.1 M acetic acid). The tube was incubated for 10 min at 22° C. The iodination was terminated by adding 1 mL of 0.1% TFA. The mono-iodinated peptide was purified by reverse-phase HPLC using a Vydac C18 ([…]) column (30 cm×0.39 cm) in combination with a binary elution system of (A) 0.1% TFA in H2O and (B) 0.1% TFA, 10% H2O, 90% acetonitrile. Fractions of 0.5 mL were collected and analyzed by its radioactive content.
Cells (1.4×10^6) were plated in 100 mm plates and transfected 24 h later with pCDNA3.1-hGHS-R1a (UMR cDNA Resource Center #GHSR0A0000) following the CaHPO4 precipitation method. Briefly, 40 μg of plasmid DNA was diluted in 500 μL of sterile H2O and added to an equal volume of a 4× CaCl2, pH 7.9 solution (2 mM Tris-HCl, 0.2 mM EDTA, 500 mM CaCl2). The mixture was then added slowly with air bubbles to 1 mL of 2× Hepes-buffered saline, pH 7.1 (50 mM Hepes, 280 mM NaCl, 1.5 mM Na2HPO4). After 30 min at room temperature, 1 mL was distributed evenly over the cells and let overnight. The medium was changed the next morning and the membrane preparation was made two days later.
Cells were washed twice with PBS and once with ice-cold homogenization buffer (50 mM Tris-HCl, pH 7.3, 5 mM MgCl2, 2.5 mM EDTA, 30 μg/ml bacitracin). Cells were scraped and harvested in 1.5 mL tubes. Cells were then lysed by temperature shock with two freeze/thaw cycles in liquid nitrogen. The tubes were centrifuged at 14000 g for 20 min. Pellets were resuspended in homogenization buffer and stored at −80° C. until used. Total protein concentrations were determined with the BCA protein assay kit (Pierce).
Competition experiments were performed by incubating 50 μg of LLC-PK1 membranes expressing human GHS-R1a with 15 fmol of ^125I-Ghrelin and increasing concentrations of unlabeled ghrelin or with increasing concentrations of azapeptides derivatives in 0.5 mL of binding buffer. Bound radiolabelled ligand was separated from free by filtration on Whatman GF/C filters pretreated with a 1% polyethylenimine solution. Filters were washed with 2×3 mL of washing buffer (50 mM Tris-HCl, pH 7.3, 10 mM MgCl2, 2.5 mM EDTA, 0.015% Triton X-100). Filters were counted in a LKB gamma counter. Curves were analyzed using Prism software (GraphPad Software Inc).

[1] = Table 6, read-out: IC50 Binding CD36
[2] = Table 3, rat cardiac membranes, [125I]Tyr-Bpa-Ala-hexarelin as radioligand, read-out: IC50, binding affinity of aza peptide derivatives towards CD36

Sequence of CD36 (Q07969 whole entry): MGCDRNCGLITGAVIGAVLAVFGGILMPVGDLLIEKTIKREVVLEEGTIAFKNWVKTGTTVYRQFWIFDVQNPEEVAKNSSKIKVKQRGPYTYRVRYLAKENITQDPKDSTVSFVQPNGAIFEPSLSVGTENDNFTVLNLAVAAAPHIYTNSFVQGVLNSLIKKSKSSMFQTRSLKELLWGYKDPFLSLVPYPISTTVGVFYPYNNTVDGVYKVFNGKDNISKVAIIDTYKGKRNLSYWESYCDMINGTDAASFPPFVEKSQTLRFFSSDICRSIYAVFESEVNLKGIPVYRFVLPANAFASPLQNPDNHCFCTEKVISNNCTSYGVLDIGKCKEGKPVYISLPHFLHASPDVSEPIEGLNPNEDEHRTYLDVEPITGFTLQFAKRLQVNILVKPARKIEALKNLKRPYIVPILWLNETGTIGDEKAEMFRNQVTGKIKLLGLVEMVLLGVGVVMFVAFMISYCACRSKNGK
Sequence of human GHS-R1a (Q92847 whole entry): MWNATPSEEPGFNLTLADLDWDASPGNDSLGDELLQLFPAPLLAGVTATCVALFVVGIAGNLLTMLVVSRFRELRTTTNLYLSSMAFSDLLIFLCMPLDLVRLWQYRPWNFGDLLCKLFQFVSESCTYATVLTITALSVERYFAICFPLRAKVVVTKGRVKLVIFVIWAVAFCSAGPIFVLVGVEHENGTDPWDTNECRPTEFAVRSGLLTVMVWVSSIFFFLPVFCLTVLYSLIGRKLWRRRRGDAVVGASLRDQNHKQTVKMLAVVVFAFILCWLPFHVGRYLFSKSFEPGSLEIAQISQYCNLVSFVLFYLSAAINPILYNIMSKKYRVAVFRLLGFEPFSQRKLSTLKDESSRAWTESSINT

IC50 (CD36; [1]) [µM]	IC50 (human GHS-R1a) [µM]	binding affinity for GHS-R1a receptor in words (human GHS-R1a; compared with GHRP-6)	SMILES	IC50 (human GHS-R1a; listed as CP-1A(i)) [µM]	binding activity/affinity at CD36 in words (CD36)	IC50 (CD36; [2]) [µM]
5.02	> 10	decreased drastically	C[C@H](N)C(=O)NN(Cc1ccccc1)C(=O)N[C@@H](C)C(=O)N[C@@H](Cc1c[nH]c2ccccc12)C(=O)N[C@H](Cc1ccccc1)C(=O)N[C@@H](CCCCN)C(N)=O [CP-1A (iv), Ala-azaPhe-Ala-Trp-D-Phe-Lys-NH2] (H-A[azaPhe]AW[dF]K-NH2)	–	without major change	–
72.2	> 10	–	C[C@H](NC(=O)[C@@H](Cc1ccccc1)NC(=O)[C@H](Cc1c[nH]c2ccccc12)NC(=O)[C@H](C)NC(=O)N(Cc1ccc(O)cc1)NC(=O)[C@@H](N)Cc1cnc[nH]1)C(N)=O [CP-1B (i), His-AzaTyr-Ala-Trp-D-Phe-Ala-NH2] (H-H[azaTyr]AW[dF]A-NH2)	–	–	–
> 10	> 10	–	C[C@H](NC(=O)N(Cc1ccc(O)cc1)NC(=O)[C@@H](N)Cc1cnc[nH]1)C(=O)N[C@@H](Cc1c[nH]c2ccccc12)C(=O)N[C@H](C)C(=O)N[C@@H](CCCCN)C(N)=O [CP-1B (ii), His-azaTyr-Ala-Trp-D-Ala-Lys-NH2] (H-H[azaTyr]AW[dA]K-NH2)	–	–	–
17.4	> 10	–	C[C@H](N)C(=O)NN(Cc1ccc(O)cc1)C(=O)N[C@@H](C)C(=O)N[C@@H](Cc1c[nH]c2ccccc12)C(=O)N[C@H](Cc1ccccc1)C(=O)N[C@@H](CCCCN)C(N)=O [CP-1B (iv), Ala-AzaTyr-Ala-Trp-D-Phe-Lys-NH2] (H-A[azaTyr]AW[dF]K-NH2)	–	–	–
8.76	–	–	C[C@H](N)C(=O)N[C@H](Cc1c[nH]c2ccccc12)C(=O)NNC(=O)N[C@@H](Cc1c[nH]c2ccccc12)C(=O)N[C@H](Cc1ccccc1)C(=O)N[C@@H](CCCCN)C(N)=O [CP-2A(v), Ala-D-Trp-azaGly-Trp-D-Phe-Lys-NH2] (H-A[dW][azaGly]W[dF]K-NH2)	–	–	–
9.02	8.17	–	CC(C)CN(NC(=O)[C@@H](Cc1c[nH]c2ccccc12)NC(=O)[C@@H](N)Cc1cnc[nH]1)C(=O)N[C@@H](Cc1c[nH]c2ccccc12)C(=O)N[C@H](Cc1ccccc1)C(=O)N[C@@H](C)C(N)=O [CP-2B (i), His-D-Trp-azaLeu-Trp-D-Phe-Ala-NH2] (H-H[dW][azaLeu]W[dF]A-NH2)	–	retained significant activity similar to the parent peptide	–
–	–	–	NCCCC[C@H](NC(=O)[C@@H](Cc1ccccc1)NC(=O)[C@H](Cc1c[nH]c2ccccc12)NC(=O)NNC(=O)[C@@H](Cc1c[nH]c2ccccc12)NC(=O)[C@@H](N)Cc1cnc[nH]1)C(N)=O [DBG188p, His-D-Trp-azaGly-Trp-D-Phe-Lys-NH2] (H-H[dW][azaGly]W[dF]K-NH2)	–	retained significant activity similar to the parent peptide	9.61
–	–	–	C[C@H](NC(=O)N(Cc1cccc2ccccc12)NC(=O)[C@@H](N)Cc1cnc[nH]1)C(=O)N[C@@H](Cc1c[nH]c2ccccc12)C(=O)N[C@H](Cc1ccccc1)C(=O)N[C@@H](CCCCN)C(N)=O [DBG253-10, His-azaNal-1-Ala-Trp-D-Phe-Lys-NH2] (H-H[X3]AW[dF]K-NH2)	–	–	1930

SMILES	IC50 (CD36; [1]) [µM]	IC50 (human GHS-R1a) [µM]	binding affinity for GHS-R1a receptor in words (human GHS-R1a; compared with GHRP-6)	IC50 (human GHS-R1a; listed as CP-1A(i)) [µM]	binding activity/affinity at CD36 in words (CD36)	IC50 (CD36; [2]) [µM]
C[C@H](NC(=O)[C@@H](Cc1ccccc1)NC(=O)[C@H](Cc1c[nH]c2ccccc12)NC(=O)[C@H](C)NC(=O)N(Cc1ccccc1)NC(=O)[C@@H](N)Cc1cnc[nH]1)C(N)=O [CP-1A (i), His-azaPhe-Ala-Trp-D-Phe-Ala-NH2] (H-H[azaPhe]AW[dF]A-NH2)	> 10	51	–	> 10	–	–
C[C@H](NC(=O)[C@H](C)NC(=O)N(Cc1ccccc1)NC(=O)[C@@H](N)Cc1cnc[nH]1)C(=O)N[C@H](Cc1ccccc1)C(=O)N[C@@H](CCCCN)C(N)=O [CP-1A (iii), (D/L)His-azaPhe-Ala-Ala-D-Phe-Lys-NH2] (H-H[azaPhe]AA[dF]K-NH2)	27.6	> 10	–	–	–	–
